From patent US9447446B2, “Lipid multilayer microarrays and their use for cell culture screening” (FLORIDA STATES UNIVERSITY RESEARCH FOUNDATION, priority 2011, dated 2016)

Experiments:
[1] = tested on: NIH 3T3 cells; test: live cell imaging of DOPE-rhodamine uptake from lipid pattern; format: cell-based; settings: cells cultured over lipid pattern for 25 hours; decrease starts after 20 hours, complete by 25 hours
Procedure: DOTAP is mixed with 1 mol % DOPE-rhodamine, and 2 μL was deposited in the M-type inkwell for the DPN 2000.
Microscopy for all the imaging except the supplementary video is done with a Nikon Eclipse Ti microscope. The printed patterns and the Retiga-SRV fast 1394 camera are used. Patterns are imaged in brightfield before cell culture. Nikon fluorescence filter sets B-2E/C FITC and G-2E/C TRITC are used for the live/dead cell assay. Imaging is done at 800 m sec exposure time with the 10× (NA=0.3) objective and at 1 second for the 4× (NA=0.13) objective. Lamp intensity for all imaging is set at 4. Microscopy for the live cell lipid uptake for the supplementary video is done with a Nikon TE-2000-E inverted microscope equipped with a Nikon Plan Apo 40× (NA=0.95) DIC objective.
FIGS. 10, 11, 12, 13, 14 and 15 show the uptake of DOPE-rhodamine-labeled DOTAP by NIH 3T3 cells. […] Fluorescence intensity is used as the indicator of the amount of lipid taken up by the cells. A higher fluorescence in cells indicates higher uptake of lipids. Grid lines 1022 and 1024 in FIG. 10 and grid lines 1026 and 1028 in FIGS. 10 and 11 divide the images of FIGS. 10 and 11 into areas 1032 and 1034, respectively, analyzed and compared for fluorescence intensity before and after cell incubation on the patterns. […]

[2] = tested on: NIH 3T3 cells; format: cell-based; settings: for cell death over drug pattern: lipid (DOTAP)-encapsulated drug pattern, FIG. 21
Procedure: NIH 3T3 cells (obtained from the American Type Culture Collection, CRL-1658™, and maintained according to the collections guidelines) for all experiments are seeded at 4×10^5 cells/mL and grown to 70% confluence in Dulbecco's Modified Eagle Medium supplemented with 10% Cosmic Calf Serum (Sigma Aldrich). Trypsin (0.25%) is used for cell detachment, and the medium is replaced with fresh medium 24 hours before the experiment. Cells are seeded onto the patterned glass coverslips by gently pipetting a drop of the cell suspension directly over each pattern to prevent the patterns from being washed away. The same method is used to seed other parts of the slide for use as control areas. The cells are incubated over the patterned areas for 48 hours.
Aliquots of valinomycin (20 mg/mL) and DOTAP (20 mg/mL), both dissolved in chloroform, are placed in an amber glass vial and serially diluted to produce valinomycin masses of 20, 10, 5, 2.5, 1.25 and 0.63 mg. Drying, liposome formation and cell culture are conducted as described above for the Rhodamine dose-response. Toxicity assays are performed after 24 and 48 hours.
Docetaxel (20 mg/mL) dissolved in DMSO is further serially diluted in Hank's buffered salt solution to produce seven solutions with docetaxel masses of 50, 25, 12.5, 6.25, 3.2, 1.6 and 0.8 mg respectively, each with a total volume of […]. The eighth is a solution of DMSO only (control) at the same volume as the 50 mg solution. These mixtures are added to […] of medium and added to the cells in the same manner as described above for the Rhodamine dose-response. Toxicity assays are performed after incubation for 48 hours.
The BacLight live/dead assay is purchased from Invitrogen. The cells are incubated with both SYTO 9 and propidium iodide for 20 min. The cells stained with both are counted as dead, and those stained with SYTO 9 only are counted as live.^34,35 All counting of live and dead cells is done by hand.
Valinomycin is tested first because of its quick action as a cytotoxic agent and immediate action upon incorporation into the cellular membrane. The drug acts as a potassium ionophore, facilitating loss of potassium and resulting in cell death. FIGS. 16, 17, 18 and 19 show a toxicity assay of cells that are cultured over a lipid multilayer microarray. […] In FIGS. 16, 17 and 18, arrows in 1612, 1614 and 1616 point to the same alignment mark. FIG. 16 is a brightfield image of DOTAP/valinomycin pattern before cell culture. […] FIG. 18 is a higher magnification of the square area 1702 of FIG. 17. Images are taken after 24 hours. Images in FIGS. 17 and 18 are the merged TRITC and FITC fluorescence channel images. FIG. 19 is a mosaic of images (TRITC filter set). Central square 1902 corresponds to FIG. 17, and the other squares are the areas immediately surrounding central square 1902. All live cells are stained green; nuclei of dead cells are stained red.
Taxotere® (docetaxel) is an anticancer drug and is a second-generation, semisynthetic analog of Taxol® (paclitaxel). Taxanes, which include paclitaxel and docetaxel, work by binding to microtubules and stabilizing them, thus preventing their disassembly and progression through mitosis, and therefore their functioning inside the cytoplasm. The cell may revert to the G1 phase or undergo apoptosis.^36 Cells are plated over patterns (such as that in FIG. 16) consisting of lipid only, lipid-encapsulated docetaxel and lipid-encapsulated valinomycin, all on the same glass coverslip and incubated for 48 hours. The results are shown in FIGS. 20, 21, 22, 23, 24, 25, 26, 27, 28 and 29.

[3] = NIH 3T3 cells, 48 hours, live/dead assay

With “1,2-dioleoyl-sn-glycerol-3-phosphoethanolamine-N-(lissamine rhodamine b sulfonyl) (ammonium salt) [DOPE-rhodamine]” the “critical uptake time (window in which fluorescence of absorbed spots disappears)” value [1] was 5 h.

CCCCCCCC/C=C\CCCCCCCC(=O)OCC(C[N+](C)(C)C)OC(=O)CCCCCCC/C=C\CCCCCCCC.[Cl-] (stereo not shown) [DOTAP, 1,2-dioleoyl-3-trimethylammonium-propane (chloride salt)] was tested, and the “toxicity of lipid-only pattern versus control with medium only” value ([2]; DOTAP-only pattern, NIH 3T3 cells, 48 hours, p>0.05) was “did not differ significantly”.

CC(=O)O[C@@]12CO[C@@H]1C[C@H](O)[C@@]1(C)C(=O)[C@H](O)C3=C(C)[C@@H](OC(=O)[C@H](O)[C@@H](NC(=O)OC(C)(C)C)c4ccccc4)C[C@@](O)([C@@H](OC(=O)c4ccccc4)[C@H]21)C3(C)C [docetaxel] was tested, and the “comparable concentration of docetaxel dissolved in DMSO delivered from solution” value ([2]; equivalent solution concentration for the toxicity of the docetaxel pattern, 48 hours) was “approximately 6.25 mg/mL” and the “cell death over drug pattern” value [2, 3] was “over 60%”.

For CC(C)[C@@H]1NC(=O)[C@H](C)OC(=O)[C@@H](C(C)C)NC(=O)[C@@H](C(C)C)OC(=O)[C@H](C(C)C)NC(=O)[C@H](C)OC(=O)[C@@H](C(C)C)NC(=O)[C@@H](C(C)C)OC(=O)[C@H](C(C)C)NC(=O)[C@H](C)OC(=O)[C@@H](C(C)C)NC(=O)[C@@H](C(C)C)OC1=O [valinomycin], the “toxicity level from the surface (cells killed)” value ([2]; DOTAP/valinomycin pattern (4:1 lipid-to-drug), NIH 3T3 cells, 24 hours, live/dead assay) was “about 11%”, the “corresponding concentration of liposomal drug delivered from solution” value ([2]; equivalent solution concentration for the toxicity of the DOTAP/valinomycin pattern, 24 hours) was “about 0.1 mg/mL” and the “cell death over drug pattern” value [2, 3] was “about 25%”.
